Assay results reported in patent US8614201B2 (Janssen Pharmaceutica NV, priority 2009, dated 2013).

biological target: Human TRPA1 (Homo sapiens, UniProt O75762); assay: Assay 1: In vitro cellular testing of TRPA1 modulation (CHO-TREx, Fluo-3 calcium fluorescence, AITC agonist); format: cell-based; set-up: expressed in transfected cells; host or cells: CHO-TREx cells (Invitrogen), vector pcDNA4/TO; settings: CHO-TREx cells expressing human TRPA1; Fluo-3 fluorescence (FLIPR/Tetra); agonist 15 μM allyl isothiocyanate (AITC); 30 minute antagonist incubation
Summary of the method: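 Tetracycline-induced CHO-TREx cells stably expressing human TRPA1, loaded with 4 μM Fluo-3 AM, preincubated 30 min with compound (serial dilution typically from 10 μM, three-fold steps) in HEPES saline pH 7.4. Fluorescence change over 3 min after 15 μM AITC; IC50 from Hill fit versus no-antagonist and 10 μM ruthenium red controls.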

Human TRPA1, sequence (O75762 whole entry): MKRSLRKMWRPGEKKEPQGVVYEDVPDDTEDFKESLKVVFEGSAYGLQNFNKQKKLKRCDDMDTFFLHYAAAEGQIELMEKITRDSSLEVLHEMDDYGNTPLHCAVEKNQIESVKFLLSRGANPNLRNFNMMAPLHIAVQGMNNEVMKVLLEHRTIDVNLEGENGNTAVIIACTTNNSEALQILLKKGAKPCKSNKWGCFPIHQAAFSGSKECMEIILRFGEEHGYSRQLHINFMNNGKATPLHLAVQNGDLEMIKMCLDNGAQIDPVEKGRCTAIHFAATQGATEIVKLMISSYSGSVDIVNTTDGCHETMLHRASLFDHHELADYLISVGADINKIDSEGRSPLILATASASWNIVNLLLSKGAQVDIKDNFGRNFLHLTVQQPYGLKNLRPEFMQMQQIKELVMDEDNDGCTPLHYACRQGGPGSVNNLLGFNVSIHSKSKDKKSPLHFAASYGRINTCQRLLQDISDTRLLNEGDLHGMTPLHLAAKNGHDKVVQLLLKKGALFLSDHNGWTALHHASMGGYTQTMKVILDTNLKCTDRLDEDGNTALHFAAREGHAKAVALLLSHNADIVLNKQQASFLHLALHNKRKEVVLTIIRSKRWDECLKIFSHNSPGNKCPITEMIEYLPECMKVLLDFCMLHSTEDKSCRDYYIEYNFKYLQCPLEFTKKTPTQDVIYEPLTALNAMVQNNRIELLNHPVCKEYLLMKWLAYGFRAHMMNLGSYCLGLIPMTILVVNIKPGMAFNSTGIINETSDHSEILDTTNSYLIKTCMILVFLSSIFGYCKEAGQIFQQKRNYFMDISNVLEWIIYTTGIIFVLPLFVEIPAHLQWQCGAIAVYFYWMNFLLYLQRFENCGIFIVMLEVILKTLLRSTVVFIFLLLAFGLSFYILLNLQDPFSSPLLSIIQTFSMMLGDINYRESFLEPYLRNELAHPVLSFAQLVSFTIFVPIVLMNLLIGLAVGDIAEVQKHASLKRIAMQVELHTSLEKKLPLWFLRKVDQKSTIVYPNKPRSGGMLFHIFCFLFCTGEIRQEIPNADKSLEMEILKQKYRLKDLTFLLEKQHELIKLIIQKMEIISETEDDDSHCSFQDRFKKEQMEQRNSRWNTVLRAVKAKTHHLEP

| Structure (SMILES) | IC50 [µM] |
| --- | --- |
| O=C(NCc1cccc(-c2cc(F)c(OC(F)F)c(F)c2)c1)[C@@H]1CCCN1S(=O)(=O)c1ccc(F)cc1 [Example 74, 1-(4-Fluorobenzenesulfonyl)-pyrrolidine-2S-carboxylic acid (4′-difluoromethoxy-3′,5′-difluorobiphenyl-3-ylmethyl)-amide] | 0.017 |
| CS(=O)(=O)c1ccc(-c2cccc(CNC(=O)[C@@H]3CCCN3S(=O)(=O)c3ccc(F)cc3)c2)cc1 [Example 75, 1-(4-Fluorobenzenesulfonyl)-pyrrolidine-2S-carboxylic acid (4′-methanesulfonylbiphenyl-3-ylmethyl)-amide] | 0.771 |
| O=C(NCc1cccc(-c2ccc([N+](=O)[O-])cc2)c1)[C@@H]1CCCN1S(=O)(=O)c1ccc(F)cc1 [Example 76, 1-(4-Fluorobenzenesulfonyl)-pyrrolidine-2S-carboxylic acid (4′-nitrobiphenyl-3-ylmethyl)-amide] | 0.024 |
| O=C(NCc1cccc(-c2ccc(Br)cc2)c1)[C@@H]1CCCN1S(=O)(=O)c1ccc(F)cc1 [Example 77, 1-(4-Fluoro-benzenesulfonyl)-pyrrolidine-2S-carboxylic acid (4′-bromo-biphenyl-3-ylmethyl)-amide] | 0.059 |
| NS(=O)(=O)c1ccc(-c2cccc(CNC(=O)[C@@H]3CCCN3S(=O)(=O)c3ccc(F)cc3)c2)cc1 [Example 78, 1-(4-Fluorobenzenesulfonyl)-pyrrolidine-2S-carboxylic acid (4′-sulfamoyl-biphenyl-3-ylmethyl)-amide] | 6.05 |
| Cc1ccc(-c2cccc(CNC(=O)[C@@H]3CCCN3S(=O)(=O)c3ccc(F)cc3)c2)cc1 [Example 79, 1-(4-Fluoro-benzenesulfonyl)-pyrrolidine-2S-carboxylic acid (4′-methyl-biphenyl-3-ylmethyl)-amide] | 0.137 |
| COc1ccc(-c2cccc(CNC(=O)[C@@H]3CCCN3S(=O)(=O)c3ccc(F)cc3)c2)cc1 [Example 80, 1-(4-Fluorobenzenesulfonyl)-pyrrolidine-2S-carboxylic acid (4′-methoxybiphenyl-3-ylmethyl)-amide] | 0.41 |
| O=C(NCc1cccc(-c2ccc(OCC(F)(F)F)cc2)c1)[C@@H]1CCCN1S(=O)(=O)c1ccc(F)cc1 [Example 81, 1-(4-Fluorobenzenesulfonyl)-pyrrolidine-2S-carboxylic acid [4′-(2,2,2-trifluoroethoxy)-biphenyl-3-ylmethyl]-amide] | 0.093 |
| CSc1ccc(-c2cccc(CNC(=O)[C@@H]3CCCN3S(=O)(=O)c3ccc(F)cc3)c2)cc1 [Example 82, 1-(4-Fluoro-benzenesulfonyl)-pyrrolidine-2S-carboxylic acid (4′-methylsulfanyl-biphenyl-3-ylmethyl)-amide] | 0.05 |
| O=C(NCc1cccc(-c2ccc(Cl)nc2)c1)[C@@H]1CCCN1S(=O)(=O)c1ccc(F)cc1 [Example 83, 1-(4-Fluoro-benzenesulfonyl)-pyrrolidine-2S-carboxylic acid 3-(6-chloro-pyridin-3-yl)-benzylamide] | 0.073 |
| COc1ccc(-c2cccc(CNC(=O)[C@@H]3CCCN3S(=O)(=O)c3ccc(F)cc3)c2)cn1 [Example 84, 1-(4-Fluorobenzenesulfonyl)-pyrrolidine-2S-carboxylic acid 3-(6-methoxypyridin-3-yl)-benzylamide] | 0.34 |
| NC(=O)c1ccc(-c2cccc(CNC(=O)[C@@H]3CCCN3S(=O)(=O)c3ccc(F)cc3)c2)cc1 [Example 85, 1-(4-Fluorobenzenesulfonyl)-pyrrolidine-2S-carboxylic acid (4′-carbamoylbiphenyl-3-ylmethyl)-amide] | 14.1 |
| N#Cc1ccc(-c2cccc(CNC(=O)[C@@H]3CCCN3S(=O)(=O)c3ccc(F)cc3)c2)cc1 [Example 86, 1-(4-Fluoro-benzenesulfonyl)-pyrrolidine-2S-carboxylic acid (4′-cyano-biphenyl-3-ylmethyl)-amide] | 0.085 |
| Cc1ccc(-c2cccc(CNC(=O)[C@@H]3CCCN3S(=O)(=O)c3ccc(F)cc3)c2)cn1 [Example 87, 1-(4-Fluorobenzenesulfonyl)-pyrrolidine-2S-carboxylic acid 3-(6-methylpyridin-3-yl)-benzyl amide] | 1.79 |
| O=C(NCc1cccc(-c2ccc(C(F)(F)F)nc2)c1)[C@@H]1CCCN1S(=O)(=O)c1ccc(F)cc1 [Example 88, 1-(4-Fluorobenzenesulfonyl)-pyrrolidine-2S-carboxylic acid 3-(6-trifluoromethylpyridin-3-yl)-benzyl amide] | 0.017 |
| CC(=O)c1ccc(-c2cccc(CNC(=O)[C@@H]3CCCN3S(=O)(=O)c3ccc(F)cc3)c2)cc1 [Example 89, 1-(4-Fluorobenzenesulfonyl)-pyrrolidine-2S-carboxylic acid (4′-acetylbiphenyl-3-ylmethyl)-amide] | 0.844 |
| COc1ccc(-c2cccc(CNC(=O)[C@@H]3CCCN3S(=O)(=O)c3ccc(F)cc3)c2)nc1 [Example 90, 1-(4-Fluorobenzenesulfonyl)-pyrrolidine-2S-carboxylic acid 3-(5-methoxypyridin-2-yl)-benzylamide] | 8.3 |

| Structure (SMILES) | IC50 [µM] |
| --- | --- |
| O=C(NCc1cccc(-c2ccc(Cl)cn2)c1)[C@@H]1CCCN1S(=O)(=O)c1ccc(F)cc1 [Example 91, 1-(4-Fluorobenzenesulfonyl)-pyrrolidine-2S-carboxylic acid 3-(5-chloropyridin-2-yl)-benzylamide] | 0.175 |
| O=C(NCc1cccc(-c2ccc(C(F)(F)F)cn2)c1)[C@@H]1CCCN1S(=O)(=O)c1ccc(F)cc1 [Example 92, 1-(4-Fluorobenzenesulfonyl)-pyrrolidine-2S-carboxylic acid 3-(5-trifluoromethylpyridin-2-yl)-benzylamide] | 0.017 |
| CN(C)c1ccc(-c2cccc(CNC(=O)[C@@H]3CCCN3S(=O)(=O)c3ccc(F)cc3)c2)cc1 [Example 93, 1-(4-Fluorobenzenesulfonyl)-pyrrolidine-2S-carboxylic acid (4′-dimethylaminobiphenyl-3-ylmethyl)-amide] | 0.086 |
| O=C(NCc1cccc(-c2ccc(N3CCOCC3)cc2)c1)[C@@H]1CCCN1S(=O)(=O)c1ccc(F)cc1 [Example 94, 1-(4-Fluorobenzenesulfonyl)-pyrrolidine-2S-carboxylic acid (4′-morpholin-4-yl-biphenyl-3-ylmethyl)-amide] | 1.63 |
| Cn1ccc2cc(-c3cccc(CNC(=O)[C@@H]4CCCN4S(=O)(=O)c4ccc(F)cc4)c3)ccc21 [Example 96, 1-(4-Fluoro-benzenesulfonyl)-pyrrolidine-2S-carboxylic acid 3-(1-methyl-1H-indol-5-yl)-benzylamide] | 0.432 |
| O=C(NCc1cccc(-c2ccc(N3CCOCC3)nc2)c1)[C@@H]1CCCN1S(=O)(=O)c1ccc(F)cc1 [Example 97, 1-(4-Fluorobenzenesulfonyl)-pyrrolidine-2S-carboxylic acid 3-(6-morpholin-4-yl-pyridin-3-yl)-benzylamide] | 1.71 |
| O=C(NCc1cccc(-c2ccccc2)c1)[C@@H]1CCCN1S(=O)(=O)c1ccc(F)cc1 [Example 98, 1-(4-Fluorobenzenesulfonyl)-pyrrolidine-2S-carboxylic acid (biphenyl-3-ylmethyl)-amide] | 0.381 |
| O=C(NCc1cccc(-c2ccc3cc[nH]c3c2)c1)[C@@H]1CCCN1S(=O)(=O)c1ccc(F)cc1 [Example 101, 1-(4-Fluorobenzenesulfonyl)-pyrrolidine-2S-carboxylic acid 3-(1H-indol-6-yl)-benzylamide] | 4.05 |
| O=C(NCc1cccc(-c2ccc(CN3CCOCC3)cc2)c1)[C@@H]1CCCN1S(=O)(=O)c1ccc(F)cc1 [Example 102, 1-(4-Fluorobenzenesulfonyl)-pyrrolidine-2S-carboxylic acid (4′-morpholin-4-ylmethylbiphenyl-3-ylmethyl)-amide] | 1.7 |
| O=C(NCc1cccc(-c2ccc(N3CCCCC3)cc2)c1)[C@@H]1CCCN1S(=O)(=O)c1ccc(F)cc1 [Example 103, 1-(4-Fluoro-benzenesulfonyl)-pyrrolidine-2S-carboxylic acid (4′-piperidin-1-yl-biphenyl-3-ylmethyl)-amide] | 0.252 |
| CN(C)c1ccc(-c2cccc(CNC(=O)[C@@H]3CCCN3S(=O)(=O)c3ccc(F)cc3)c2)cn1 [Example 104, 1-(4-Fluorobenzenesulfonyl)-pyrrolidine-2S-carboxylic acid 3-(6-dimethylaminopyridin-3-yl)-benzylamide] | 0.46 |
| O=C(NCc1cccc(-c2cnc3ccccc3c2)c1)[C@@H]1CCCN1S(=O)(=O)c1ccc(F)cc1 [Example 105] | 1.03 |
| O=C(NCc1cccc(-c2ccc3ncccc3c2)c1)[C@@H]1CCCN1S(=O)(=O)c1ccc(F)cc1 [Example 106, 1-(4-Fluoro-benzenesulfonyl)-pyrrolidine-2S-carboxylic acid 3-quinolin-6-yl-benzylamide] | 0.594 |
| O=C(NCc1cccc(-c2ccc3ccccc3n2)c1)[C@@H]1CCCN1S(=O)(=O)c1ccc(F)cc1 [Example 107, 1-(4-Fluoro-benzenesulfonyl)-pyrrolidine-2S-carboxylic acid 3-quinolin-2-yl-benzylamide] | 0.518 |
| Cn1ccc2ccc(-c3cccc(CNC(=O)[C@@H]4CCCN4S(=O)(=O)c4ccc(F)cc4)c3)cc21 [Example 108, 1-(4-Fluorobenzenesulfonyl)-pyrrolidine-2S-carboxylic acid 3-(1-methyl-1H-indol-6-yl)-benzylamide] | 2.53 |
| O=C(NCc1cccc(-c2ccc(C(F)(F)F)cc2)c1)[C@@H]1[C@H]2C[C@H]2CN1S(=O)(=O)c1ccc(F)cc1 [Example 109, 3-(4-Fluorobenzenesulfonyl)-3-aza-1S,5R-bicyclo[3.1.0]hexane-2S-carboxylic acid (4′-trifluoromethylbiphenyl-3-ylmethyl)-amide] | 0.319 |
